Each structure is given as a SMILES string.

In data set [1] the target is T1, α1β2γ2 GABAARs (rat α1, rat β2 and human γ2S) (UniProt P18507+P62813+P63138).
T1 construct: expressed in transfected cells; host or cells: Xenopus laevis oocytes
In words: Two-electrode voltage clamp of α1β2γ2 GABAAR-expressing Xenopus oocytes. In kind it is cell-based. The text has this:
Purple and gray bars indicate periods of presentation of UV light (purple) and high-intensity visible light (High-Vis) (gray), respectively. […] These amplitude determination conditions are denoted by numbers beneath the waveform in FIG. 35d.
In each of the MPC088 experiments, the cis-dominant form was generated by UV light during static bathing. […] Numbers beneath the waveform in FIG. 2(c) denote amplitude determination conditions for that experiment.
Oocytes expressing α1β2γ2 receptors (rat α1, rat β2 and human γ2S) were prepared and studied by two-electrode voltage-clamp recording^58 (holding potential: −70 mV; amplifier: GeneClamp500B; Axon Instruments, Foster City, Calif.). Unless otherwise indicated, oocytes were superfused with Ringer solution (physiological saline) at a rate of ˜1 mL/min. The experiments of FIGS. 35d-e, 36c-e and 47 involved periods of static bathing, i.e., halted superfusion. The γ2(A79C) subunit was prepared by site-directed mutagenesis. Oocyte electrophysiological experiments were carried out in room light. A UV light-emitting diode (peak wavelength: 365 nm; Hamamatsu Photonics, Japan) and a microscope illuminator (white light; Schott Fostec, Auburn, N.Y.) provided UV and visible stimulating light. As measured at the position of the oocyte, the intensity of the UV light at 365 nm was 220 μW/mm^2. At 440 nm, the nominal strength of the visible (white) light (referred to as high-intensity visible light) was 28 μW/mm^2, and that of the ambient room illumination was 0.045 μW/mm^2. In all experiments, low-intensity visible light from the microscope illuminator (3 μW/mm^2 at 440 nm) was present at all times except those involving high-intensity visible illumination. Electrophysiological data were obtained using Clampex 8.2 (Axon Instruments), analyzed using Clampfit 10.0 (Axon Instruments) and OriginPro7.5 (OriginLab, Northampton, Mass.). All statistical analysis employed a two-sample t-test.
On the technique in general: Two-electrode voltage clamp holds a large cell at a set potential and records current.

The next data set deals with T2, α1β2γ2 GABAARs (UniProt P18507+P62813+P63138).
T2 construct: expressed in transfected cells; host or cells: Xenopus laevis oocytes
In kind it is binding. Particulars: 1 μM competitor added to 10 μM 23 and 3 μM GABA. The source says: Tomlinson and Rosenthal, the linear chain of 22 is further extended by an amide-linked PEG5000 that is terminated by biotin. […] Bright-field images of the (opaque) oocytes illustrate the focus of the oocyte border during fluorescence microscopy.

In data set [2] the test system is GABAARs of cerebellar PNs. Kind of data set: Test for direct agonist activity on Purkinje neurons (recirculating MPC088, no exogenous GABA). In kind it is cell-based, mouse. Particulars: 30 μM gabazine added to 30 μM MPC088. Here is the method:
To test for direct agonist activity of MPC088 on PNs, cerebellar slices were perfused with recirculating 30 μM MPC088 (the maximal MPC088 concentration that could be reliably maintained solubilized in bicarbonate-buffered solution). MPC088 was converted to cis-dominant form by a 2-min exposure to UV light (LED, 365 nm/160 mW, Mouser, Inc., Mansfield, Tex.; LED driver, 700 mA BuckPuck DC Driver, Quadica Developments, Inc., Brantford, Ontario, Canada), before its dilution into the recirculating external solution. The same LED was then used to continuously UV-illuminate the recirculating solution for the duration of the experiment. Whole-cell voltage clamp recordings were obtained from PNs and determined the change in membrane current produced by alternating blue and UV illumination of the slice, as in the FIG. 40 experiments. […] The temporal sequence of illumination differed among the experiments (e.g., only the cell in a received multiple blue/UV exposures), but the data plotted are the amplitudes from the blue to UV transition (in the case of the cell in a, this is the blue/UV transition from the first of the three exposures). Yellow-filled data points indicate results from the experiment in a. Each data point is the average obtained from 4-10 consecutive recordings. […] Error bars represent the SEM (FIG. 42b).

The target of another data set is T3, α4β3δ GABAAR (Homo sapiens, UniProt P28472+P48169).
T3 construct: expressed in transfected cells; host or cells: Xenopus oocytes
In words: Two-electrode voltage clamp of α4β3δ GABAAR-expressing oocytes. In kind it is cell-based. Particulars: 200 μM propofol and 50 nM GABA. The text has this: Propofol is known to modulate GABAA receptors that contain a β subunit. […] Data in each group was obtained from 4 oocytes.

Data set [3] deals with GABAARs of cerebellar PNs. In words: Whole-cell voltage clamp of cerebellar Purkinje neurons in slices, GABA-evoked currents with UV/blue light. The format is cell-based, mouse. Particulars: 10 μM GABA plus 300 μM propofol.
The next data set is described as follows: Hydrophobicity (log P). In kind it is physicochemical.

On to `CN1C(=O)CN=C(c2ccccc2)c2cc(Cl)ccc21` [diazepam, reference compound], for which the “potentiation factor of the 3 μM GABA response” value in data set [1] was determined as 1.92±0.36. Further, the “effect on fluorescent border from binding of 23 (competition)” value on α1β2γ2 GABAARs is “virtually eliminated”.

For `COc1ccc(-c2ccc(=N)n(CCCC(=O)O)n2)cc1` [gabazine, reference compound], the “effect of antagonist on the MPC088-elicited response” value in data set [1] (picrotoxin 100 μg, gabazine 30 μg, bicuculline 100 μM (so in the source)) is given as “not sensitive”. The “average current remaining relative to the pre-gabazine current” value in data set [2] worked out at 11±3%.

In general, logP refers to the decadic logarithm of the partition coefficient of the neutral form, usually between octanol and water. Read a low logP as a more hydrophilic compound. For `CC(C)c1cccc(C(C)C)c1O` [propofol, reference compound], at α4β3δ GABAAR, the “response relative to the saturating GABA-alone response” value amounted to 1.2±0.1 fold. Moreover, the “maximum current of direct activation relative to the 100 μM GABA response” value in data set [1] is listed as “about 40%”. In addition, the “light-induced current change” value in data set [3] was “little or no light-induced current change”. The compound further came in with a logP in “Hydrophobicity (log P)” of roughly 4.

Values taken from US9399145B2, “Nanoscale neuromodulating platform for retina neuron activation apparatus and method” (The Board of Trustees of the University of Illinois, priority 2005, dated 2016).
